The record followed here is article PMC9578445, “Association of respiratory failure with inhibition of NaV1.6 in the phrenic nerve” (Channels, 2022).

Series [1] has as its system rat diaphragm with the phrenic nerve attached. The series can be described thus: Rat hemisected diaphragm (HMD) assay, ex vivo. To be noted: for IC50: relative to 3 μM d-Tubocurarine relaxation = 100%; for inhibition in rat HMD assay: at both 10 and 30 μM. The source says: Wistar derived male or female rats weighing 450 ± 50 g were euthanized by CO2 overexposure. The diaphragm with the phrenic nerve attached was removed and placed into a tissue recording chamber containing Krebs solution pH 7.4; (composition in g/L: NaCl 6.89, KCl 0.35, CaCl2 0.277, KH2PO4 0.163, MgSO4 · 7H2O 0.296, NaHCO3 2.1 and glucose 1.8). A piece of cotton was attached to the top of the phrenic nerve over the jaw electrodes. A second piece of cotton was attached to the tip of the tendinous tissue at the apex of the diaphragm preparation for attachment to an isometric transducer under 1 g tension. The rib of the diaphragm preparation was secured to the bottom of the jaw electrodes. […] The recording chamber was placed into a water bath kept at a temperature of 32°C by means of a suitable thermoregulator consisting of a thermostat and heating elements in addition to a water circulator.
The isometric transducer was connected to an amplifier and the tissue response was recorded on a two-pen recorder set at 1 volt. Field stimulation [S48 Stimulator (GRASS) set at 0.2 Hz (12 pulses per minute), 0.5 ms pulse duration at 70% of maximum voltage (about 3 to 5 volts)] delivered to two circle platinum electrodes (0.2 cm in diameter) was applied for transmural tissue stimulation. Each tissue preparation was washed three times in Krebs solution every 15 minutes for a 60 minute equilibration period and permitted to develop contractions. D-Tubocurarine (300 µM dissolved in 0.1 mL distilled water for a final 3 µM bath concentration) was added to establish an isometrically recorded control relaxation response ranging from one to two centimeters and corresponding to 60–70% of maximal relaxation. […] The tissue was then washed periodically until the contraction returns to the baseline value.
Sixty minutes later, the test compound was added (e.g. 30 mM in 0.01 mL vehicle of 100% DMSO, for final concentration of 30 µM test compound and 0.1% DMSO). A test compound recorded relaxation response of 50% or more (≥50%) within 5 minutes, relative to the 3 µM d-Tubocurarine control response, indicates neuromuscular blocking activity.

The next series concerns the target T1, NAChR α3β4 (Homo sapiens, UniProt P30926+P32297).
T1 construct: Panlabs
The series can be described thus: Panlabs selection. Format: binding.

A further series concerns the target Cav1.2 (Homo sapiens, UniProt Q13936). The series can be described thus: Global Counterscreen Cav1.2. The source says: (§1) Supplement KCHL_A_2122309_SM6747.docx, table 1 | column: SSI-5; SSI-3; SSI-4; SSI-1; SSI-6
(In general: Counterscreens check selectivity or assay interference.)

A short description of series [2]: Rat plasma protein binding. Format: in vitro ADME.
Source text: as §1

Series [3] deals with (Homo sapiens, UniProt Q12809). The series can be described thus: Global Counterscreen MK499 binding.
Sequence of (Homo sapiens, UniProt Q12809) (Q12809 whole entry): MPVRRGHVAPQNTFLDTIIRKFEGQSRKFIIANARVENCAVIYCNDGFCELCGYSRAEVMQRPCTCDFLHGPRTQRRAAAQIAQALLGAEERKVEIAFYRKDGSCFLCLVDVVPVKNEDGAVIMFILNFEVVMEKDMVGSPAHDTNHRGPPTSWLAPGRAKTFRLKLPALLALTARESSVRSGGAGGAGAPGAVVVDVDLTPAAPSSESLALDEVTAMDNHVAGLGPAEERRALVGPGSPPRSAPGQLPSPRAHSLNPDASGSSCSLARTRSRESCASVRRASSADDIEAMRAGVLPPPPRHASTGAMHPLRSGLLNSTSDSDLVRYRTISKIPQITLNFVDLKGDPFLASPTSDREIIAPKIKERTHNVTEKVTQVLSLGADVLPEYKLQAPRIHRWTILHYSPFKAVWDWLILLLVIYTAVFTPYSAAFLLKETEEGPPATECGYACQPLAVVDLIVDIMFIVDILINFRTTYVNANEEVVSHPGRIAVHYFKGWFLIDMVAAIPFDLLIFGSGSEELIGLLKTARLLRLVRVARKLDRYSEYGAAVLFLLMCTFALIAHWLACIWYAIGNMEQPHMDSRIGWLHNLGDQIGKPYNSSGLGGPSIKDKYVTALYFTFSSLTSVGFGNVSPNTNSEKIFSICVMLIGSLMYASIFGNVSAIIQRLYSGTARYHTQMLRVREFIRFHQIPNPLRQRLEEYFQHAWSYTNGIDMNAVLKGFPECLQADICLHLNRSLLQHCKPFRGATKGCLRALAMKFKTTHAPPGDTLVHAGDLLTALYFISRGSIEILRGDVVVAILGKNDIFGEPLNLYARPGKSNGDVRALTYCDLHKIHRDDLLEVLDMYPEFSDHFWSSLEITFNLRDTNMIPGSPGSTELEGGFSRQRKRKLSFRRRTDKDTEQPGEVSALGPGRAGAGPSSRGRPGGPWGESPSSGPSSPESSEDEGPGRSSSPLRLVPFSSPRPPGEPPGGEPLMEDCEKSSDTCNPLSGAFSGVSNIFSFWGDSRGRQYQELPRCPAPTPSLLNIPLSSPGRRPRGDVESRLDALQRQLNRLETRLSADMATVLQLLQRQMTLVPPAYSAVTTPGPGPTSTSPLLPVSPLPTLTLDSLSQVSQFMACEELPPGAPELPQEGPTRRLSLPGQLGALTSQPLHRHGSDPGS
Source text: as §1

A further series concerns the target T2, Adrenergic α2C (Homo sapiens, UniProt P18825).
T2 construct: Panlabs
The series can be described thus: Panlabs selection. The class given is binding. The source says:
(§2) Supplement KCHL_A_2122309_SM6747.docx, table 1 | column: SSI-5; SSI-3; SSI-4; SSI-1

Another series deals with Serotonin 5-HT2B (Homo sapiens, UniProt P41595). The series can be described thus: Panlabs selection. Format: binding.
Sequence of Serotonin 5-HT2B (P41595 whole entry): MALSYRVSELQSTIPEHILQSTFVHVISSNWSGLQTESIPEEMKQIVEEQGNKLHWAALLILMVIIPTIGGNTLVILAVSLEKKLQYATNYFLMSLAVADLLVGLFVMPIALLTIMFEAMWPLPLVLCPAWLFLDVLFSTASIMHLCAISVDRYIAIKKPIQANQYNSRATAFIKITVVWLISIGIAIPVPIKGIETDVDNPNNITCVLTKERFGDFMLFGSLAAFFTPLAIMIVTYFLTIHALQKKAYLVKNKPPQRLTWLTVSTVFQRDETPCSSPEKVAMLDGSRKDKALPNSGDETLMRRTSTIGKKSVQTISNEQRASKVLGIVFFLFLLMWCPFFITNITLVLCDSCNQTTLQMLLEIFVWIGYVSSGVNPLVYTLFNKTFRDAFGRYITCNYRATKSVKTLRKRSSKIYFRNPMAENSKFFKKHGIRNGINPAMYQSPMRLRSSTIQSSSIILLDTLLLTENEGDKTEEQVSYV
Source text: as §2

Series [4] addresses Transporter, Dopamine DAT (Homo sapiens, UniProt Q01959). The series can be described thus: Panlabs selection. The class given is binding.
Source text: as §2

The target of a further series is T3, Adrenergic α1D (Homo sapiens, UniProt P25100).
T3 construct: Panlabs
The series can be described thus: Panlabs selection. The class given is binding.
Source text: as §2

Another series addresses Transporter, Choline (Homo sapiens, UniProt Q9GZV3). The series can be described thus: Panlabs selection. Format: binding.
Source text: as §2

Another series has as its target T4, Melanocortin MC5 (Homo sapiens, UniProt P33032).
T4 construct: Panlabs
The series can be described thus: Panlabs selection. The class given is binding.
Source text: as §2

The target of the next series is T5, Adrenergic α2A (Homo sapiens, UniProt P08913).
T5 construct: Panlabs
The series can be described thus: Panlabs selection. The class given is binding.
Source text: as §2

In another series the target is T6, Histamine H1 (Homo sapiens, UniProt P35367).
T6 construct: Panlabs
The series can be described thus: Panlabs selection. The class given is binding.
Source text: as §2

A further series deals with T7, Adrenergic α2B (Homo sapiens, UniProt P18089).
T7 construct: Panlabs
The series can be described thus: Panlabs selection. The class given is binding.
Source text: as §2

Series [5] addresses T8, Nav1.6 (Homo sapiens, UniProt Q9UQD0). The series can be described thus: Nav1.6 binding. Further details: expressed in transfected cells; host or cells: HEK cells. To be noted: read-out: Nav1.6 bind Ki.
Source text: as §1

In series [6] the target is T8, Nav1.6. The series can be described thus: PX Nav1.6 IC50 (supplement). The class given is cell-based. Further details: expressed in transfected cells; host or cells: HEK cells. As for the experimental part:
Sodium currents were recorded from recombinant Human Embryonic Kidney 293 cell lines stably overexpressing the respective sodium channel type (NaV1.2, 1.5, 1.4, 1.6, 1.7). Recording solutions were comprised of the following (in mM): Internal solution: 30 CsCl, 5 HEPES, 10 EGTA, 120 CsF, 5 NaF, 2 MgCl2, pH = 7.3 with CsOH; External solution 1: 40 NaCl, 120 NMDG, 1 KCl, 0.5 MgCl2, 5 HEPES, 2.7 CaCl2, pH to 7.3 with NaOH, used for NaV1.5 recordings; External solution 2: 150 NaCl, 5 KCl, 2 CaCl2, 1 MgCl2, 10 HEPES, 12 Dextrose, pH 7.3 with NaOH, used for NaV1.7, 1.6, 1.4, and 1.2 recordings.
Whole-cell currents were recorded from cells stably expressing NaV channels using the PatchXpress 7000A automated patch clamp platform (Molecular Devices, LLC; Sunnyvale, CA). A portable air-conditioning unit was installed on the PatchXpress instruments to maintain the temperature of the headstage at 21°C. Cells were voltage clamped at −60 mV for cell detection and sealing. At the start of each recording, a voltage curve and an inactivation curve was run for each cell to determine the voltage at which 50% of the channels reside in the inactivated state (V0.5 inact). […]
NaV1.7, NaV1.6, NaV1.4: Compound potency was measured in a hyperpolarized-state protocol where the holding potential for each cell was set to V0.5inact – 20 mV. […]

T8 sequence (Q9UQD0 whole entry): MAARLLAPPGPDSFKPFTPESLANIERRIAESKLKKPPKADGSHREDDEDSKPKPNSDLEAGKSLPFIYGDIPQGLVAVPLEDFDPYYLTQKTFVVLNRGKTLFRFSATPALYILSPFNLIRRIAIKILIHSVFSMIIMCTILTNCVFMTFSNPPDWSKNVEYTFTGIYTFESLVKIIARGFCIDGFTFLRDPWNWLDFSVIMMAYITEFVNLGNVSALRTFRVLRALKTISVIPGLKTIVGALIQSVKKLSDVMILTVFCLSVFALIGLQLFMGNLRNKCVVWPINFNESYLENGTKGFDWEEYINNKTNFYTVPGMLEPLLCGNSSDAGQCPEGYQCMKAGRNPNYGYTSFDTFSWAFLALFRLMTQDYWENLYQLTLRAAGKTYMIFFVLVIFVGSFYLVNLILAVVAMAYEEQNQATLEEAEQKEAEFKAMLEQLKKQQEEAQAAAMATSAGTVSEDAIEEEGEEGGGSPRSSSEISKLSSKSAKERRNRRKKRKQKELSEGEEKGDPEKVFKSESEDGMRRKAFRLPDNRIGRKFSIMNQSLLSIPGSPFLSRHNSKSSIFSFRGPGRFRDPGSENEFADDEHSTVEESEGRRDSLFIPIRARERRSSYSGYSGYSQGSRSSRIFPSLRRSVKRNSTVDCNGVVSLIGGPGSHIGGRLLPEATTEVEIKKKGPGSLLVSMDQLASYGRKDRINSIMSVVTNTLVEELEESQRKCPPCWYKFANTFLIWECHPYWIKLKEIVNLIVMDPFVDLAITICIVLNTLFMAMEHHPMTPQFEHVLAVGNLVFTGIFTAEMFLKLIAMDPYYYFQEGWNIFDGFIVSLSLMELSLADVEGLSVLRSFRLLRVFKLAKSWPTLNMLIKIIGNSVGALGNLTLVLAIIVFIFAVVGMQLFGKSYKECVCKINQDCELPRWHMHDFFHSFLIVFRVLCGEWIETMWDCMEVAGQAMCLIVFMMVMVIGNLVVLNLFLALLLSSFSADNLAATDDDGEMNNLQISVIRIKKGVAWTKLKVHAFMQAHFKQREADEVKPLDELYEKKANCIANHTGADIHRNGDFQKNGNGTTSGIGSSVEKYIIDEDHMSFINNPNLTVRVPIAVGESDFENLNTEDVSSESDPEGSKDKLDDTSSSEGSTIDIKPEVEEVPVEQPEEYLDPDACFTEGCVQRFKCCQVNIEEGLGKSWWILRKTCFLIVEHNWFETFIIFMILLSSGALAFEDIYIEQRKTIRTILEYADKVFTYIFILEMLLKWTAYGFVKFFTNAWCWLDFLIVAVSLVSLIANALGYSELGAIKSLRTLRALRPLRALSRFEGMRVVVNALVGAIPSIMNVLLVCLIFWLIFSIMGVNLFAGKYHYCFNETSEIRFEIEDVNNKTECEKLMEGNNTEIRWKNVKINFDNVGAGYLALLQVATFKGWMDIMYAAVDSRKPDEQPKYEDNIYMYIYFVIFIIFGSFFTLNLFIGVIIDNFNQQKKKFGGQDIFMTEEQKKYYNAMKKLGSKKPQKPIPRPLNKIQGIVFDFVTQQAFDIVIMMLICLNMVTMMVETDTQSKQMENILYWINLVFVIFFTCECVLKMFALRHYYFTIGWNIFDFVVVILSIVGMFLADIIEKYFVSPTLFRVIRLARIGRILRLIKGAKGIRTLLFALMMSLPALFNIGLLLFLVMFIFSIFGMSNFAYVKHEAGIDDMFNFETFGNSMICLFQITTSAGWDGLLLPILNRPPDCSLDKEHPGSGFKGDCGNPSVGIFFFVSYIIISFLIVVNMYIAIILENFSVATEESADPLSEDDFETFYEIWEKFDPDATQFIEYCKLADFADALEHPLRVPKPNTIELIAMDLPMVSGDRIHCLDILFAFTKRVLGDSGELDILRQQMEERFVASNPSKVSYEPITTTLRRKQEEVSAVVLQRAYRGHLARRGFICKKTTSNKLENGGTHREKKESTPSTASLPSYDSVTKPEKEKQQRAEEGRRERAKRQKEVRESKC
Sequence of Transporter, Choline (Q9GZV3 whole entry): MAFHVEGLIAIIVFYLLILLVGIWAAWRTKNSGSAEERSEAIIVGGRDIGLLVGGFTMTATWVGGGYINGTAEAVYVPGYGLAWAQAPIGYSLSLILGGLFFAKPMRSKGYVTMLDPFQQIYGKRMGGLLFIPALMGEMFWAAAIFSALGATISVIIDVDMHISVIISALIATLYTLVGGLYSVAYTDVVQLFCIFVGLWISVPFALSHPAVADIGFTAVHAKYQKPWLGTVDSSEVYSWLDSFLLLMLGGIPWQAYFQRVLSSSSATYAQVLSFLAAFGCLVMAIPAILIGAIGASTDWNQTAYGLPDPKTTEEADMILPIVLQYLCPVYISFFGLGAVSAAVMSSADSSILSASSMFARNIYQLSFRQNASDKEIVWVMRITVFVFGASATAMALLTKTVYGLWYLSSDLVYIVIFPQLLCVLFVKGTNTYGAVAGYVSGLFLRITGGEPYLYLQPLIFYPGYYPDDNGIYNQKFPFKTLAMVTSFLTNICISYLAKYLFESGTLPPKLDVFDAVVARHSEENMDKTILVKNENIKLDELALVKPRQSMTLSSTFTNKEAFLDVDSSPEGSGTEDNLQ
Sequence of Transporter, Dopamine DAT (Q01959 whole entry): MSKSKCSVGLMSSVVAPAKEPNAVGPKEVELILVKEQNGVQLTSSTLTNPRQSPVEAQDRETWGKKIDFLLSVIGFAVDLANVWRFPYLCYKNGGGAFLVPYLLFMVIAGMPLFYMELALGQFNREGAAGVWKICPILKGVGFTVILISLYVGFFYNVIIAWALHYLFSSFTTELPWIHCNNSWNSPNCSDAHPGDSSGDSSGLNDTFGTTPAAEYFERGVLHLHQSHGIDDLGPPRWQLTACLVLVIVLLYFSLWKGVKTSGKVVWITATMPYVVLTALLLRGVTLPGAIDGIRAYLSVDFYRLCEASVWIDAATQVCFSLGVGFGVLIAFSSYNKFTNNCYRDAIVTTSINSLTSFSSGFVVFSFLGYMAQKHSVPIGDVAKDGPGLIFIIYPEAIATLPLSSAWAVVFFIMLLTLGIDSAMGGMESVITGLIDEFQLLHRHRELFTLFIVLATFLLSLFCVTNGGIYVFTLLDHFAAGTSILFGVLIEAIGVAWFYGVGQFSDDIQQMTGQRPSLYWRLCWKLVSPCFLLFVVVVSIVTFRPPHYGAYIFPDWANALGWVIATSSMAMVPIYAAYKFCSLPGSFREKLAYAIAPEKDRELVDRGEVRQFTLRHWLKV

As a reminder, the IC50 is the concentration needed to halve the response being measured. A low value points to greater potency. In turn, `C[C@H](c1cccc2c1CNCC2)n1c(=O)oc2cc(S(=O)(=O)Nc3ncns3)ccc21` [SSCI-3] displayed an IC50 in series [1] (Rattus norvegicus) of 2.7 µM.
In general, inhibition refers to the drop in the measured response relative to a control, in per cent. In general, Ki refers to the equilibrium dissociation constant of an inhibitor or competing ligand from its target. Broadly, the fraction unbound is free concentration divided by total concentration. Low values mean little free substance, high ones much free substance. Turning to `O=S(=O)(Nc1nccs1)c1cc(Cl)c(NCCCCNC[C@H]2CCCN2)cc1F` [SSCI-1], in series [1], the “inhibition of diaphragm contraction / respiratory effect in HMD assay” value was “does not exhibit respiratory effect”. This compound also had an inhibition at 30 µM in [1] (Rattus norvegicus, highest concentration tested of 30 μM) of less than 50%. Further, the results for the concentration for half-maximal inhibition (IC50) (in [1] (Rattus norvegicus); against Cav1.2; against Nav1.6 [6]) were greater than 30 µM, greater than 30 µM and 18.2 µM, respectively. Further, the “inhibition in rat HMD assay” value in series [1] was “little effect”. The Ki on NAChR α3β4 was greater than 10 µM; in series [3], greater than 54 µM; on Adrenergic α2C, greater than 10 µM; at Serotonin 5-HT2B, greater than 10 µM; in series [4], 980 nM; at Adrenergic α1D it was greater than 10 µM. In addition, the Ki at Transporter, Choline was 3.19 µM; at Melanocortin MC5, greater than 10 µM; on Adrenergic α2A, greater than 10 µM; at Histamine H1, greater than 10 µM; at Adrenergic α2B it was greater than 10 µM; on Nav1.6 [5], 47.1 nM. Further, the fraction unbound in series [2] was 0.067.
As to `COc1ccc(CCC(c2cccc3c2CNCC3)n2c(=O)oc3cc(S(=O)(=O)Nc4ncns4)c(F)cc32)cc1` (stereo not shown) [SSCI-6], the “Ex vivo HMD inhibition” value in series [1] (at 10 (μM), relative to 3 μM d-Tubocurarine = 100%) is given as 130% at 10. The “inhibition in rat HMD assay” value in [1] is given as “supramaximal inhibition”. For the same compound, the half-inhibitory concentration (IC50) was 24 µM against Cav1.2 and 0.018 to 0.036 µM on Nav1.6 [6]. For the same compound, the fraction unbound in series [2] is 0.018. Also, the figures for the Ki (in [3]; at Nav1.6 [5]) were 17 µM and 0.08 nM, respectively.
Turning to `N#Cc1cc(S(=O)(=O)Nc2cscn2)ccc1Oc1ccc(Cl)cc1-c1ccnn1C1CNC1` [SSCI-5], the midpoint of inhibition in series [1] (Rattus norvegicus), the IC50, lay at 11 µM.
